What is called IC50 is the midpoint of a concentration-inhibition curve. Higher therefore signals weaker potency.

The assay deals with ROCK2 (human) (UniProt O75116). The assay can be described thus: Assessment of ROCK2 Kinase Activity.
ROCK2 (human), sequence (O75116 whole entry, looked up): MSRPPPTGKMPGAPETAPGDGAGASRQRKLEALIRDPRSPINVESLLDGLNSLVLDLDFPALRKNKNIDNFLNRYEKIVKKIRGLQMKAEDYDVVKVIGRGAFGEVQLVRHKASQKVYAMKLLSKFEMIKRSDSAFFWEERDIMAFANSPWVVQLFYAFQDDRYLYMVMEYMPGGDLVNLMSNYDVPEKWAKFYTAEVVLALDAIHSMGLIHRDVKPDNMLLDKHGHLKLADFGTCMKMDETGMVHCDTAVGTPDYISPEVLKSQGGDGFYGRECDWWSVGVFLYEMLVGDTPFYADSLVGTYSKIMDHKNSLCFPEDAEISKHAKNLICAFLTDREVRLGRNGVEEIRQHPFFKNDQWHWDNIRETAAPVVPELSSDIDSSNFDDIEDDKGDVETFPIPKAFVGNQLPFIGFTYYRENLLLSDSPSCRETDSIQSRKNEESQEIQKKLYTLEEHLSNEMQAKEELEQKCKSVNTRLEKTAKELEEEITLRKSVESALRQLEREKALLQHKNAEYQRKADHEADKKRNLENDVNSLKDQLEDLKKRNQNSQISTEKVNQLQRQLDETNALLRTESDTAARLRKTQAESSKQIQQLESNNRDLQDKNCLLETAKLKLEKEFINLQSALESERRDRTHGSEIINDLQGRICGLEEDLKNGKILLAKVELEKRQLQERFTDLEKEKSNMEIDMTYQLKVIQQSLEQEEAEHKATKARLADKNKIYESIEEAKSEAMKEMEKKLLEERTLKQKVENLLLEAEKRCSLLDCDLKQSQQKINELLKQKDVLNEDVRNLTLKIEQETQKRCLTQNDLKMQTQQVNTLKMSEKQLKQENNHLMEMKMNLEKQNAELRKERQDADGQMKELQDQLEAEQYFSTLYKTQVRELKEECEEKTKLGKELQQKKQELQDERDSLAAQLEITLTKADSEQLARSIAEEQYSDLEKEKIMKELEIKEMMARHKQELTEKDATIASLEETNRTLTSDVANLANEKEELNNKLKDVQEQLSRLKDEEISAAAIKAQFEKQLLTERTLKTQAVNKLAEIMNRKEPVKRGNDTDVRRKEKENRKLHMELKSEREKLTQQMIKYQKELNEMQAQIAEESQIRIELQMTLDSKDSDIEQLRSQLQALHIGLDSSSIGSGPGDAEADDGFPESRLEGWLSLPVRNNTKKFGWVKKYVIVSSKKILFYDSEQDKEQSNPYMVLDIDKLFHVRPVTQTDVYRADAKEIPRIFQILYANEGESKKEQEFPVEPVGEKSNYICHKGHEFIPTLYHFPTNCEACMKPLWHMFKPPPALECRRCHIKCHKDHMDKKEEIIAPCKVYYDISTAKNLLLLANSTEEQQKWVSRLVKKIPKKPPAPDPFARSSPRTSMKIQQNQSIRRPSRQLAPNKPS
As for `CCCNC(=O)CN1CCC(Oc2cc3cc[nH]c(=O)c3cc2Cl)CC1`, the 50% inhibitory concentration (IC50) was not above 1000 nM.

`O=c1[nH]ccc2cc(OC3CNC3)c(Cl)cc12` registered a half-inhibitory concentration (IC50) not above 1000 nM.

Turning to `C[C@@H](N)C(=O)N1CCC(Oc2cc3cc[nH]c(=O)c3cc2Cl)CC1`, the IC50 is not above 1000 nM.

Consider `O=c1[nH]ccc2cc(O[C@@H]3CCN(Cc4ccccc4)C3)c(Cl)cc12`, for which the IC50 is not above 1000 nM.

Compound `NCC(=O)N1CCC(Oc2ccc3c(=O)[nH]ccc3c2)CC1` had an IC50 not above 1000 nM.

Compound `Cc1cc2c(=O)[nH]ccc2cc1O[C@H]1CCNC1` registered an IC50 not above 1000 nM.

`O=C([C@@H]1CCCN1)N1CCC(Oc2cc3cc[nH]c(=O)c3cc2Cl)CC1`: the IC50 is not above 1000 nM.

`O=c1[nH]ccc2cc(OC3CCCNCC3)c(Cl)cc12` (configuration not stated) gave an IC50 not above 1000 nM.

Take `CN(C)CC(=O)N1CCC(Oc2cc3cc[nH]c(=O)c3cc2Cl)CC1`: the IC50 is not above 1000 nM.

`N[C@@H](Cc1ccc(Cl)cc1)C(=O)N1CCC(Oc2cc3cc[nH]c(=O)c3cc2Cl)CC1` came in with an IC50 not above 1000 nM.

For the compound `Cc1cc2c(=O)[nH]ccc2cc1OC1CCCNCC1` (configuration not stated), the IC50 was not above 1000 nM.

The compound `Cc1cc2c(=O)[nH]ccc2cc1OC[C@@H]1CCNC1` came in with an IC50 not above 1000 nM.

The values are drawn from the Kinase Knowledgebase extract (Sharma et al. 2016).
